Data as given in ChEMBL document CHEMBL6182830, “Hepatocyte targeting via the asialoglycoprotein receptor” (RSC Med Chem, 2025).

Test: Binding affinity to human ASGR assessed as dissociation constant by SPR analysis

Kd [µM]	SMILES
1.2	COc1cccc(-n2cc(C[C@H]3O[C@H](OCC(O)CNCc4ccccc4)[C@H](NC(=O)C(F)(F)F)[C@@H](O)[C@H]3O)nn2)c1 (stereo partly drawn)
40.4	CC(=O)N[C@@H]1[C@@H](O)[C@@H](O)[C@@H](CO)O[C@H]1O
41	CC(=O)N[C@@H]1[C@@H](O)[C@@H](O)[C@@H](CO)O[C@H]1C
14.8	C[C@@H]1O[C@H](CO)[C@H](O)[C@H](O)[C@H]1NC(=O)C(F)(F)F
880	CO[C@@H]1O[C@H](CO)[C@H](O)[C@H](O)[C@H]1O
7.2	CC(=O)N[C@H]1[C@H]2OC[C@](CO)(O2)[C@H](O)[C@@H]1O
1.6	C=CCO[C@H]1O[C@H](CN=[N+]=[N-])[C@H](O)[C@H](O)[C@H]1NC(C)=O
1.8	O=C(N[C@H]1[C@H]2OC[C@](CO)(O2)[C@H](O)[C@@H]1O)C(F)(F)F
